Laboratory results published in patent US7892354B2, “Process for the parallel detection of crystalline forms of molecular solids” (Solvias AG, priority 2003, dated 2011).
Where a name gives a salt, the structure may show the parent alone.

Assays:
[1] = Parallel phase equilibrium experiments in suspensions of 32 solvents and solvent mixtures, Raman spectra grouped into classes; assay type: physicochemical; conditions: 64 experiments, 32 solvents/solvent mixtures; for number of different classes of Raman spectra (ideally corresponding to different solid forms of sertraline HCl): 48 hours shaking, temperature cycled between 18° C. and 28° C., similarity factor 0.5; for occurrence of form II among the solid forms obtained: 48 hours, 18° C. to 28° C., verified against reference spectra, HCl
Experimental: A reference experiment with the stable form I as starting material is designed in such a way that 64 experiments are carried out for establishing the phase equilibrium in suspensions of 32 different solvents and solvent mixtures. For this purpose, 32 of the vessels in a 96-well quartz microtitre plate are each filled with about 5 mg of sertraline HCl form 1, and 100 microlitres of the corresponding solvent are then introduced into each vessel in accordance with the plan below, and the plate is closed with seals.
The microtitre plate is then shaken on a mechanical shaker (Eppendorf, Thermomixer Comfort) for 48 hours, the temperature of the mechanical shaker being changed cydically between 18° C. and 28° C. A cycle corresponds to one hour. The shaking frequency is 500 per minute. After a time of 48 hours for establishing equilibrium, the microtitre plate is removed from the mechanical shaker and the solid in each of the occupied vessels is investigated directly in the suspension using a Raman microscope (Renishaw Raman microscope system RM 1000). One or two Raman spectra are recorded in each vessel. The solvents in each vessel are then evaporated with the aid of a seal system having flow-through channels according to WO 03/026797 under nitrogen, a flow rate of about 0.03 litre/hour being established. Altogether, 80 Raman spectra are recorded in 64 experiments (32 directly from the suspension and 32 from the dried suspension).
The measured Raman spectra are divided into different classes of spectra on the basis of their differences. A separate evaluation programme which carries out an automatic comparison of measured spectra on the basis of the wave numbers of emission maxima in the Raman spectrum and generates a classification is used for this purpose. A distinguishing criterion is a similarity factor which is determined by visual assessment of selected, individual spectra.
Similarly to the reference example described above, 64 experiments are carried out in 32 different solvents and solvent mixtures in 32 vessels of a 96-well microtitre plate. For this purpose, each of the 32 vessels is occupied with 3 mg of the amorphous form. 100 microlitres of solvent according to the plan given in the comparative example are then filled into each of the 32 vessels, and the plate is closed with seals. The microtitre plate is then shaken on a mechanical shaker (Eppendorf, Thermomixer Comfort), the temperature of the mechanical shaker being changed cyclically between 18° C. and 28° C. A cycle corresponds to one hour, and the shaking frequency is 500 per minute. After a time of 48 hours for establishing the equilibrium, the microtitre plate is removed from the mechanical shaker and the solid in each of the occupied vessels is investigated directly in the suspension using a Raman microscope. One or two Raman spectra are recorded in each vessel. The solvents in each vessel are then evaporated with the aid of a seal system having flow-through channels according to WO 03/026797 under nitrogen, a flow rate of about 0.03 litre per hour being established. Altogether, 92 Raman spectra are recorded in 64 experiments (32 directly from the suspension and 32 from the dried suspension).

[2] = Morisette et al., Advanced Drug Delivery Reviews 56 (2004) 275-300; cited from earlier work

number of different classes of Raman spectra (ideally corresponding to different solid forms of sertraline HCl) [1]	SMILES	occurrence of form II among the solid forms obtained [1]	number of different crystal forms mentioned in the literature [2]
25	CN[C@H]1CC[C@@H](c2ccc(Cl)c(Cl)c2)c2ccccc21 [amorphous form of sertraline HCl, sertraline HCl]	both the thermodynamically stable form I and the important form II are contained in these classes	–
16	CN[C@H]1CC[C@@H](c2ccc(Cl)c(Cl)c2)c2ccccc21 [isopropanol solvate of sertraline HCl, sertraline HCl]	–	–
11	CN[C@H]1CC[C@@H](c2ccc(Cl)c(Cl)c2)c2ccccc21 [sertraline HCl form I, sertraline HCl]	the important form II did not form	–
–	CN[C@H]1CC[C@@H](c2ccc(Cl)c(Cl)c2)c2ccccc21 [sertraline HCl]	–	about 27
